Source: patent publication US6852696B2, “Inhibitors of glycosaminoglycans” (The University of Texas System, priority 1999, dated 2005)

Test system: DC-associated HA
Test: Binding of biotinylated peptide to DC surfaces
Conditions: biotinylated form
Experimental: FIGS. 8B-D. Synthesis and surface expression of HA by DC. (B) XS106 DC were labeled with ^3H-glucosamine and then examined for the incorporation of hyaluronidase-sensitive radioactivities (means+/−s.e.m.; n=5) into the indicated subcellular fractions. (C) XS106 DC were incubated with biotinylated Pep-1 or RP and then with PE-conjugated streptavidin (filed histograms) (Mummert et al. J. Exp. Med. 192:769-779, 2000) or bovine testis hyaluronidase. Baseline staining levels with PE-streptavidin alone are shown with open histograms. (D) The indicated DC preparations were examined for binding of biotinylated Pep-1 (filled) and RP (open). Peptide binding to splenic DC and bone marrow-DC was examined within the CD11c^+ populations.

Sequence: SATPASAPYPLA [RP, reference compound]
- binding to surfaces of XS106 DC: no significant binding
